Columns and labels:
[1] = Solubility of DBeQ in aqueous buffer (absorbance/turbidity); type: physicochemical; details: aqueous ATPase assay buffer, 1% DMSO
Method: Supplementary Figure 3. Solubility of DBeQ in aqueous solution. Solutions of DBeQ
were prepared in the ATPase assay buffer containing 1% DMSO. (A) DBeQ absorbance at
320 nm (blue) and solution turbidity at 400 nm (red) for increasing DBeQ concentrations. (B)
UV absorption spectrum of 100 μM DBeQ.
Supplementary Figure 4. The ATP-binding modules (D1 and D2) separated with the
middle domain (MD) in E. coli ClpB (PDB entry: 5OG1). Trp462 (red), Trp543 (magenta),
and the ATP-analog, ATPγS (dark blue) bound in D1 and D2 are shown with a “stick”
representation. Image generated using PyMOL 1.3 (Schrödinger LLC, www.pymol.com). […]

ClpB E279Q, E678Q = assay: ATPase activity of ClpB Walker B variants E279Q and E678Q; type: biochemical, Escherichia coli; details: with/without κ-casein
Method: To determine the ATPase activity, ClpB was diluted to 28 μg/ml (49-nM hexamer) in buffer C (50-mM Tris-HCl, pH 7.4, 20-mM MgCl2, 1-mM EDTA, 0.5-mM tris(2-carboxyethyl)phosphine [TCEP]). In some experiments, the ClpB solution was supplemented with 17.4 μg/ml (10 μM) κ-casein. The ClpB aliquots (18 μl) were mixed with 1 μl of the investigated compounds at different concentrations in 100% DMSO or with DMSO as a control. A sample without ClpB was used as a baseline control. After a 10-min preincubation at 37 or 45 °C, the ATP hydrolysis reaction was initiated by adding 1 μl of 100-mM ATP. The samples were incubated for 60 min (basal ClpB activity in the absence of κ-casein) or 15 min (in the presence of κ-casein) at 37 °C or 30 min at 45 °C in the absence of casein. For the E678Q ClpB variant, the incubation time in the presence of κ-casein was 60 min. After incubation, 15 μl of each sample was mixed with 200 μl of the ammonium molybdate/malachite green reagent ([67]) dispensed into a 96-well plate, followed by an addition of 30 μl of 34% sodium citrate ([68]). The plate was agitated inside a Synergy H1 reader (BioTek, Winooski, VT) for 15 min at room temperature, and the samples’ absorbance was measured at 630 nm. The readouts for ClpB-containing samples were corrected for absorbance of samples without ClpB, to account for nonenzymatic production of inorganic phosphate. […]

[2] = system: ΔclpB E. coli expressing ClpB–YFP; assay: Viability of ΔclpB strain expressing ClpB-YFP; type: cell-based, Escherichia coli; details: 45 °C, 3 h
Method: E. coli MC4100, MC4100ΔclpB, dnaK103, and dnaK756 strains were used to determine an influence of DBeQ on bacterial growth and viability. Bacteria were maintained in the LB media, and in the case of the MC4100ΔclpB strain, LB was supplemented with 30 μg/ml kanamycin. All experiments were initiated by preparing overnight cultures inoculated from single colonies and grown at 37 °C. The dnaK103 and dnaK756 overnight cultures were grown at 30 °C. On the following day, the cultures were diluted 100-fold in 10 ml of LB without antibiotics and incubated at 37 °C. The culture optical density was monitored at 600 nm. When absorbance at 600 nm reached 0.4, the culture was divided into 1-ml aliquots and supplemented with 10 μl of DMSO or different concentrations of DBeQ in DMSO. The samples were immediately transferred into an incubator/shaker at temperature 37, 45, or 50 °C. Bacteria were cultured for up to 4 h with shaking (200 RPM). […] On the following day, the bacterial colonies were counted and the colony-forming units/ml were calculated.
Supplementary Figure 10. […] (Top) ClpB was detected using Western blotting. […]
(Bottom) Western blot analysis of the bacterial lysates with anti-ClpB antibody. […] The detected signals correspond to the full-length ClpB-YFP (ClpB95-YFP) and the N-terminally truncated ClpB80-YFP (1,2). […]

Question: With c1ccc(CNc2nc(NCc3ccccc3)c3ccccc3n2)cc1 [DBeQ, N^2,N^4-dibenzylquinazoline-2,4-diamine] as the compound, how does the “DBeQ concentrations obeying Beer–Lambert law without significant turbidity increase” value [1] read?
Answer: up to 100 μM

Question: What about the “effect on ATPase of the two ATP-binding domains (D1, D2)” value (ClpB E279Q, E678Q) of the same compound?
Answer: only the C-terminal one (i.e., D2) showed casein-induced activation and was affected by DBeQ

Question: What about the “susceptibility of ΔclpB strain on expression of ClpB–YFP” value [2] of the same compound?
Answer: susceptibility to DBeQ was restored
